Publication PMC3867937 (MedChemComm, 2013)
≈ marks a conversion by molar mass, not a printed value.

How the values were obtained:
[1] = test system: membrane permeable strain (BAS3023) of Escherichia coli; settings: cited from earlier work
[2] = test system: membrane permeable strain (BAS3023) of Escherichia coli; test: Antibacterial MIC testing, microdilution, E. coli; assay type: cell-based; settings: 24 h; for E. coli MIC: membrane permeable strain of E. coli, cation-adjusted Mueller-Hinton Broth, 37°C
Bacillus subtilis [3] = settings: cited from earlier work
E. coli DNA gyrase = E. coli DNA gyrase (Escherichia coli, UniProt P0AES4+P0AES6); test: E. coli DNA gyrase supercoiling assay; assay type: biochemical; settings: for E. coli DNA gyrase IC50: supercoiling assay, relaxed plasmid DNA
Chain of E. coli DNA gyrase (P0AES4 whole entry, one chain of several): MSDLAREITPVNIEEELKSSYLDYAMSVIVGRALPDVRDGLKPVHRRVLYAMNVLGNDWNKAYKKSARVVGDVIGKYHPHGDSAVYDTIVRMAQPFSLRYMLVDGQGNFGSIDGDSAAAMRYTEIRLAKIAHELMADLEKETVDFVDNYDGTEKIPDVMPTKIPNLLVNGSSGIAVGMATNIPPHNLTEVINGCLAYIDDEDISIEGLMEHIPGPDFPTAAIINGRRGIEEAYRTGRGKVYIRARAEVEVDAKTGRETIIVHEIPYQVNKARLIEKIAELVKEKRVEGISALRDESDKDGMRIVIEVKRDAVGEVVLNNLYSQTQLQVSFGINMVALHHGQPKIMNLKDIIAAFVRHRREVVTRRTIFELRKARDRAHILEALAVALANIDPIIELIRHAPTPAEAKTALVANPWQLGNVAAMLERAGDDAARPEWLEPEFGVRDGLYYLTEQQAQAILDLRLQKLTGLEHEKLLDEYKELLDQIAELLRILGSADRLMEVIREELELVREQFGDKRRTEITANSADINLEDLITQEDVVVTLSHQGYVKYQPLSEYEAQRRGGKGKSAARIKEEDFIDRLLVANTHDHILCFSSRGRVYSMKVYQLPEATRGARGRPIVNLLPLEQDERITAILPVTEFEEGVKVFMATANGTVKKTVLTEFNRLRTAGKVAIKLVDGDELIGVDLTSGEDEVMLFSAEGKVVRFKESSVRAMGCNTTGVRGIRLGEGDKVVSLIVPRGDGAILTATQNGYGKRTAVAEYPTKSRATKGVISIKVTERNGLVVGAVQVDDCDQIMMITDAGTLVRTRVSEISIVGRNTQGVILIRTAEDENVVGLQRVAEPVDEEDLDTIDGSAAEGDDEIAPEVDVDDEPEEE

Bacillus subtilis [4] = test: Antibacterial MIC testing, microdilution, B. subtilis; assay type: cell-based; settings: for B. subtilis MIC: cation-adjusted Mueller-Hinton Broth, 24 h, 37°C; for MIC: Bacillus subtilis, read-out: MIC antibacterial activity
E. coli topoisomerase I = E. coli topoisomerase I (Escherichia coli, UniProt P06612); test: E. coli topoisomerase I relaxation inhibition assay with supercoiled plasmid DNA; assay type: biochemical; settings: relaxation of supercoiled pBAD/Thio plasmid, 30 min at 37°C
Chain of E. coli topoisomerase I (P06612 whole entry): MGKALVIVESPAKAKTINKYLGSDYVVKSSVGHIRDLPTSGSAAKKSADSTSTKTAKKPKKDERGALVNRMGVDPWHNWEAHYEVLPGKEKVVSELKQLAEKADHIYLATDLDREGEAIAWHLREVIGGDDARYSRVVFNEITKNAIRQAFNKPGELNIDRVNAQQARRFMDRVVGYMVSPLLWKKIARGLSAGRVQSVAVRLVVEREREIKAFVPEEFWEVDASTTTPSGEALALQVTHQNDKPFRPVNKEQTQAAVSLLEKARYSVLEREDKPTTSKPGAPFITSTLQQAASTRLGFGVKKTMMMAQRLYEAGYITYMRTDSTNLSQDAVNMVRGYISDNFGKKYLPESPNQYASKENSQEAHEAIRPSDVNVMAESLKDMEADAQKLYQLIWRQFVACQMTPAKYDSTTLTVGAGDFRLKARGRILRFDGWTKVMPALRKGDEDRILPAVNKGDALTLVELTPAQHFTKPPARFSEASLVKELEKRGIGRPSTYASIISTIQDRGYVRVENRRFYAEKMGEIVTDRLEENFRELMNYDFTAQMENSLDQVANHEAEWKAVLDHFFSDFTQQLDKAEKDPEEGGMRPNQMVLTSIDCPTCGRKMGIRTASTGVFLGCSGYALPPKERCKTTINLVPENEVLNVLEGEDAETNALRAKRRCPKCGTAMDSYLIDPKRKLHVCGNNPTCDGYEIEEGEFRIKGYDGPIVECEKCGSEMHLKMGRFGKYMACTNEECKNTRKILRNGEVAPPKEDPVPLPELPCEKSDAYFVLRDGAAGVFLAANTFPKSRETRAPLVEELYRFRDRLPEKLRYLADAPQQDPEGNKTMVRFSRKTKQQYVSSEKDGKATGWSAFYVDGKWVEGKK

S. rolfsii = settings: cited from earlier work

| Structure (SMILES) | E. coli MIC [2] | IC50 (E. coli DNA gyrase) | E. coli DNA gyrase IC50 (E. coli DNA gyrase) | E. coli Topo I inhibition IC50 (E. coli topoisomerase I) | also measured |
| --- | --- | --- | --- | --- | --- |
| CCCCCc1cc(OC(=O)c2c(O)cc(O)cc2CCCCC)cc(O)c1C(=O)O [Anziaic acid (synthetic sample), anziaic acid] | 100 µM | – | – | – | MIC against membrane permeable strain (BAS3023) of Escherichia coli [1]: 12 µg/mL; MIC against Bacillus subtilis (Bacillus subtilis [3]): 6 µg/mL (≈ 13.9 µM) |
| CCCCCc1cc(O)cc(O)c1C(=O)O [Compound 4, 2,4-dihydroxy-6-pentylbenzoic acid] | no inhibitory activity | > 1000 µM | no inhibitory activity | – | B. subtilis MIC (Bacillus subtilis [4]): no inhibitory activity |
| CCCCCc1cc(OC(=O)c2c(CCCCC)cc(OCc3ccccc3)cc2OCc2ccccc2)cc(O)c1C(=O)OCc1ccccc1 [Compound 6, benzyl 4-((2,4-bis(benzyloxy)-6-pentylbenzoyl)oxy)-2-hydroxy-6-pentylbenzoate] | – | > 1000 µM | inactive | inactive | – |
| O=C(OCc1ccccc1)c1ccc(OC(=O)c2ccc(OCc3ccccc3)cc2OCc2ccccc2)cc1O [Compound 10c] | – | > 1000 µM | – | – | – |
| O=C(O)c1ccc(OC(=O)c2ccc(O)cc2O)cc1O [Compound 11c] | complete loss | > 1000 µM | complete loss | complete loss | B. subtilis MIC (Bacillus subtilis [4]): complete loss |
| CCCCCc1cc(O)cc(O)c1C(=O)Oc1cc(CCCCC)c2c(c1)OC(C)(C)OC2=O [Compound 14] | – | > 1000 µM | inactive | inactive | – |
| Nc1ccc(/N=N/c2ccccc2)c(N)c1 [Compound 18] | – | – | – | – | MIC (Bacillus subtilis [4]): 200 to 400 µM (≈ 42.5 to 84.9 µg/mL); MIC ([2]; Escherichia coli, read-out: E. coli MIC): 200 to 400 µM (≈ 42.5 to 84.9 µg/mL) |
| O=C(O)c1cc(/N=N/c2cccc([N+](=O)[O-])c2)ccc1O [Compound 19] | – | – | – | – | MIC (Bacillus subtilis [4]): 200 to 400 µM (≈ 57.4 to 115 µg/mL) |
| COC(=O)c1c(C)cc(OC(=O)c2c(C)cc(O)c(C=O)c2O)c(C)c1O [atranorin] | – | – | – | – | ED50 antifungal activity against S. rolfsii (S. rolfsii): 39.70 µg/mL (≈ 106 µM) |
